Three compounds from ChEMBL document CHEMBL5727727, “(Aza)pyridopyrazolopyrimidinones and indazolopyrimidinones and their use” (2020) can be followed below.

Molecules are shown by their SMILES.

The nature of the assay: Plasma-Based Clot Lysis Assay: The clot-lysis test system configures the kinetics of clot formation and degradation in vitro and allows quantifying modulation of the process by selected test compounds.The test compounds were dissolved in 1% acetic acid and further complemented with an equal volume of DMSO. The resulting stock solutions were serially diluted in 0.5% acetic acid/50% DMSO. 1 μL aliquots of these solutions were placed into 384 well microplates (Greiner, black, transparent bottom), followed by 30 μL of diluted human citrated plasma (platelet-poor, final concentration: 5%; supplemented with fibrinogen, final concentration: 3 μM; dilution buffer: 20 mM HEPES, 150 mM NaCl, 0.01% Brij (pH 7)). The reactions were started by addition of 20 μL of CaCl2 (final concentration: 10 mM), and tPA (tissue plasminogen activator, final concentration: 0.2 nM) in dilution buffer, followed by an additional volume of 20 μL dilution buffer for improved mixing. The reactions were incubated at 37° C. Clot formation and degradation was monitored spectrophotometrically by kinetic optical density measurements at 405 nm. IC50 values were determined by comparing the resulting time courses with the time course of a blank control reaction.
By IC50 is commonly meant the concentration at which inhibition is half-maximal. With `O=c1cc(C2CCNCC2)n2nc3cncc(Br)c3c2[nH]1`, the IC50 is 100 nM.

Consider `Nc1cccc2nn3c(C4CCNCC4)cc(=O)[nH]c3c12`, for which the IC50 was determined as 35 nM.

As for `O=c1cc(C2CCNCC2)n2nc3cc(F)cnc3c2[nH]1`, the IC50 was 21 nM.
